Assay results reported in publication PMC5225183, “Fingerprinting of neurotoxic compounds using a mouse embryonic stem cell dual luminescence reporter assay” (Archives of Toxicology, 2016).
Where two headings read alike, the source gives them in different places.

B1: G-CSF: Hormone stimulating granulopoiesis; Peptide/Protein (protein, UniProt P09919 31-207, looked up)
Granulocyte …: TPLGPASSLPQSFLLKCLEQVRKIQGDGAALQEKLVSECATYKLCHPEELVLLGHSLGIPWAPLSSCPSQALQLAGCLSQLHSGLFLYQGLLQALEGISPELGPTLDTLQLDVADFATTIWQQMEELGMAPALQPTQGAMPAFASAFQRRAGGVLVASHLQSFLEVSYRVLRHLAQP

Columns and labels:
EF1α promoter = system: EF1α promoter
Summary of the method: (§1)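 Mouse CGR8 ESCs carrying Tα1-firefly and EF1α-Renilla luciferase reporters, treated either undifferentiated (48 h exposure after 24 h plating) or as MS5-induced neurons (exposure day 6 to day 8). Dual-luciferase luminescence expressed as % promoter activity versus DMSO control wells; 5 µM methylmercury as positive control.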

[1] = system: Tubulin α1 (Tα1) promoter
Summary of the method: as §1

[2] = system: Tubulin α1 (Tα1) promoter; assay: cells
Summary of the method: as §1

ESC-derived neurons = system: ESC-derived neurons
Summary of the method: (§2)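 Mouse CGR8-2Luc ESCs in LIF-containing medium were exposed to compounds for 48 h; ESC-derived neurons (MS5 co-culture, replated day 5 in N2/bFGF medium) were exposed from day 6 to day 8. Read-outs: Tα1-FLuc, EF1α-RLuc and PI DNA content as % of control. LOAEL = lowest concentration giving a significant decrease versus baseline.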

CGR8-2Luc ESCs = system: CGR8-2Luc ESCs
Summary of the method: as §2

[3] = system: undifferentiated pluripotent stem cells (ESCs); assay: Dual luminescence reporter test system, undifferentiated ESCs (readout not separated); format: cell-based, mouse; conditions: non-cytotoxic concentrations
Excerpt: Fig. 1 Synopsis of experimental protocols. The impact of compounds on neural promoter activity (FLuc, Firefly Luciferase under the control of the Tα1 promoter), general promoter activity (RLuc, Renilla Luciferase under the control of the EF1α promoter), and amount of DNA (PI, propidium iodide fluorescence in cell homogenates) was investigated in undifferentiated mouse embryonic pluripotent stem cells (ESCs) and on ESC-derived neurons. Arrows indicate the time of measurement of the three parameters. a Protocol for testing compounds effects on ESCs. CGR8-2Luc cells were plated on gelatin-coated 96-well plates in maintenance medium (BHK21 medium containing 10 % FCS, L-glutamine, NEAA, P/S, and LIF). Twenty-four hours later, cells were exposed to compounds for forty-eight hours. b Protocol for testing compounds on ESC-derived neurons. CGR8-2Luc cells were co-cultured with MS5 cells to induce neural differentiation in DMEM medium containing 15 % KO-serum, NEAA, β-mercaptoethanol, and P/S. On day 5, cells were detached and seeded on polyornithine-coated plates in DMEM medium containing N2 supplement, bFGF, and P/S; compound exposure was from day 6 to day 8
To test compounds on ESC-derived neurons, neuronal differentiation was carried out as previously described (Suter et al. [2009]; Xu et al. [2014]). Briefly, CGR8-2Luc cells were seeded on irradiated bone marrow-derived stromal MS5 cells and cultivated for 4 days in DMEM medium containing 15 % Knock-out™ Serum Replacement, non-essential amino acids, beta-mercaptoethanol, and penicillin/streptomycin. At day 5, cells were then re-plated (3 × 10^5 cells/cm^2) on polyornithine-coated 96-well plates in N2 medium containing DMEM, N2 supplement, penicillin/streptomycin, and 10 ng/ml basic human fibroblast growth factor (bFGF) (Invitrogen). […] To assess toxicity of compounds on undifferentiated pluripotent stem cells (ESCs), CGR8-2Luc cells were plated at 45,000 cells/cm^2 on 0.1 % gelatin-coated dishes in BHK21 medium, supplemented with 10 % fetal calf serum, L-glutamine, non-essential amino acids, penicillin/streptomycin, and leukemia inhibitory factor (LIF). After 24 h, compounds were added and incubated for 48 h, before luciferase expression and PI fluorescence were analyzed. In all experiments, methylmercury was used as a positive control at a concentration of 5 µM.
Luciferase activities were measured with a Dual-Luciferase™ Reporter system kit. CGR8-2Luc ES cells were lysed in 96-well plates according to the manufacturer’s instructions. Luminescence measurements were performed on a Fluostar Optima reader. Luminescence counts were expressed as percentage of promoter activity normalized by comparison with the control wells treated by DMSO. […] parameters were measured in homogenates of ESCs and in ESC-derived neurons: (1) FLuc, reflecting the activity of early neural promoter Tα1. FLuc increases during neuronal differentiation. Many neurotoxic compounds may affect FLuc expression, either through impact on neuronal differentiation, through changes of neuronal gene expression, or through killing of neurons.
After measurement of luciferase activity, DNA quantity was determined by PI assay, as previously described (Xu et al. [2014]). PI was added to cell homogenates after the luciferase test, at a final concentration of 50 µg/ml and incubated for 2 h. After incubation, fluorescence intensity was measured on a Flexstation 3 microplate reader (Excitation: 544 nm ± 15 nm; Emission: 620 nm ± 15 nm). Results are expressed as percentage of control. Propidium iodide (PI) measures total DNA content as an approximation of the cell number.

[4] = ESC-derived neurons, 48 h exposure
[5] = undifferentiated ESCs, 48 h exposure
[6] = undifferentiated ESCs, 48 h exposure, lowest tested concentration with statistically significant decrease
[7] = ESC-derived neurons, 48 h exposure, PI assay (cytotoxicity)
[8] = undifferentiated ESCs, 48 h exposure, PI assay (cytotoxicity)

Molecule	LOAEL Neurons EF1α (EF1α promoter; [4])	LOAEL ESC EF1α (EF1α promoter; [5])	LOAEL ESC Tα1 [1, 6]	LOAEL Neurons Tα1 [2, 4]	LOAEL Neurons DNA (ESC-derived neurons; [7])	LOAEL ESC DNA (CGR8-2Luc ESCs; [8])	also measured
O=C(/C=C/c1cccc(S(=O)(=O)Nc2ccccc2)c1)NO [Belinostat]	50 µM	5 µM	5 µM	0.0005 µM	50 µM	0.5 µM	effect on promoter activities in undifferentiated cells [3]: enhanced the activities of neuronal and/or general promoters
CC(C)NCC(O)COc1cccc2ccccc12 (centres unmarked) [Propranolol]	>50 µM	50 µM	50 µM	50 µM	50 µM	>50 µM	–
Brc1ccc(Oc2cc(Br)c(Br)cc2Br)c(Br)c1 [PBDE-99]	5 µM	>50 µM	50 µM	>50 µM	5 µM	>50 µM	effect on cell number in neurons (ESC-derived neurons): moderate cell number decrease
O=c1[nH]c(=O)c2[nH]c(=O)[nH]c2[nH]1 [Uric acid]	–	>50 µM	>50 µM	>50 µM	>50 µM	>50 µM	LOAEL Neurons EF1α (EF1α promoter; mouse, 48 h): >50 µM
C[CH2][Hg][S]c1ccccc1C(=O)[O-].[Na+] [Thimerosal]	–	–	–	–	–	–	LOAEL ESC EF1α (EF1α promoter): 0.5 µM; LOAEL Neurons EF1α (EF1α promoter): 0.5 µM; LOAEL ESC Tα1 [1]: 0.5 µM; LOAEL Neurons Tα1 [2]: 0.5 µM; LOAEL Neurons DNA (ESC-derived neurons): 0.5 µM; LOAEL ESC DNA (CGR8-2Luc ESCs): 0.5 µM
COc1ccc2[nH]c([S+]([O-])Cc3ncc(C)c(OC)c3C)nc2c1 (centres unmarked) [Omeprazole]	>50 µM	>50 µM	>50 µM	>50 µM	>50 µM	>50 µM	–
[Br][Hg][Br] [Mercury bromide]	>10 µM	5 µM	5 µM	10 µM	>10 µM	5 µM	cytotoxicity on ESCs (CGR8-2Luc ESCs): highly cytotoxic
COC(=O)c1ccc2c(c1)NC(=O)/C2=C(\Nc1ccc(N(C)C(=O)CN2CCN(C)CC2)cc1)c1ccccc1 [Nintedanib]	5 µM	5 µM	0.5 µM	0.05 µM	5 µM	5 µM	–
Oxytocin	>0.1 µM	>0.1 µM	>0.1 µM	>0.1 µM	>0.1 µM	>0.1 µM	–
Cc1[nH]c2ccccc2c1CCNCc1ccc(/C=C/C(=O)NO)cc1 [Panobinostat]	50 µM	0.05 µM	0.05 µM	0.0005 µM	0.05 µM	0.05 µM	effect on neural promoter activity in neurons [2]: inhibited at subnanomolar concentrations
COCC(=O)O [Methoxyacetic acid]	>50 µM	>50 µM	>50 µM	50 µM	>50 µM	>50 µM	effect on neural promoter activity in ESCs [1]: increase; inhibition at 50 µM ([2]; Mus musculus, Neuron, read-out: inhibition of neuronal promoter activity): ~40%
O=C(NC[C@H]1CN(c2ccc(N3CCOCC3=O)cc2)C(=O)O1)c1ccc(Cl)s1 [Rivaroxaban]	>10 µM	>10 µM	>10 µM	>10 µM	>10 µM	>10 µM	–
[CH3][Hg][Cl] [Methylmercury]	5 µM	0.5 µM	0.5 µM	0.05 µM	0.5 µM	0.5 µM	–
COc1cc2ncnc(Nc3ccc(F)c(Cl)c3)c2cc1OCCCN1CCOCC1 [Gefitinib]	50 µM	50 µM	50 µM	50 µM	50 µM	50 µM	–
Erythropoietin: EpoR agonist controlling erythropoiesis and neurogenesis; Peptide/Protein	>0.238 µM	>0.238 µM	>0.238 µM	>0.238 µM	–	–	effect on general promoter activity in neurons (EF1α promoter): selectively increased; LOAEL Neurons DNA (ESC-derived neurons): >0.238 µM; LOAEL ESC DNA (CGR8-2Luc ESCs): >0.238 µM
B1	>0.00266 µM	>0.00266 µM	>0.00266 µM	>0.00266 µM	–	–	effect on general promoter activity in neurons (EF1α promoter): selectively increased; LOAEL Neurons DNA (ESC-derived neurons): >0.00266 µM; LOAEL ESC DNA (CGR8-2Luc ESCs): >0.00266 µM
